Test results reported in patent US10875837B2, “Inhibitors of the fibroblast growth factor receptor” (BLUEPRINT MEDICINES CORPORATION, priority 2013, dated 2020).

Tests used:
[1] = test system: pMAPK (Thr202/Tyr204) in MDA-MB453 or DMS 114 cells; experiment: Detection of pMAPK (Thr202/Tyr204) using Alpha ELISA (pERK alphaLISA); format: cell-based; settings: 1 hr incubation with compound; cell line not given (MDA-MB453 or DMS 114)
Procedure: Detection of pMAPK (Thr202/Tyr204) Using Alpha ELISA
MDA-MB453 or DMS 114 cells were plated in 96-well cell culture plates at a density of 1×10^5 cells or 3×10^4 cells, respectively. Cells were allowed to attach, and growth media was replaced with serum free media. Compounds were added at the indicated concentrations. Following 1 hr incubation in the presence of compound, cells were collected. For the DMS 114 cells, 100 ng/mL FGF2 was added for 10 min prior to cell collection. Cell lysates were prepared and processed according to manufacturer instruction (AlphaScreen® SureFire™ Phospho-ERK 1/2 Kit (Perkin Elmer).

wild type FGFR-4 = molecular target: T1, wild type FGFR-4 (Homo sapiens, UniProt P22455); experiment: FGFR-4 wild type assay at Km (Caliper electrophoretic mobility shift); format: biochemical; settings: wild type FGFR-4, 400 uM ATP, 25 C, 90 minutes; read-out: INH-FGFR4
T1 construct: purchased Carna Biosciences, Inc
T1 sequence (P22455 22-802): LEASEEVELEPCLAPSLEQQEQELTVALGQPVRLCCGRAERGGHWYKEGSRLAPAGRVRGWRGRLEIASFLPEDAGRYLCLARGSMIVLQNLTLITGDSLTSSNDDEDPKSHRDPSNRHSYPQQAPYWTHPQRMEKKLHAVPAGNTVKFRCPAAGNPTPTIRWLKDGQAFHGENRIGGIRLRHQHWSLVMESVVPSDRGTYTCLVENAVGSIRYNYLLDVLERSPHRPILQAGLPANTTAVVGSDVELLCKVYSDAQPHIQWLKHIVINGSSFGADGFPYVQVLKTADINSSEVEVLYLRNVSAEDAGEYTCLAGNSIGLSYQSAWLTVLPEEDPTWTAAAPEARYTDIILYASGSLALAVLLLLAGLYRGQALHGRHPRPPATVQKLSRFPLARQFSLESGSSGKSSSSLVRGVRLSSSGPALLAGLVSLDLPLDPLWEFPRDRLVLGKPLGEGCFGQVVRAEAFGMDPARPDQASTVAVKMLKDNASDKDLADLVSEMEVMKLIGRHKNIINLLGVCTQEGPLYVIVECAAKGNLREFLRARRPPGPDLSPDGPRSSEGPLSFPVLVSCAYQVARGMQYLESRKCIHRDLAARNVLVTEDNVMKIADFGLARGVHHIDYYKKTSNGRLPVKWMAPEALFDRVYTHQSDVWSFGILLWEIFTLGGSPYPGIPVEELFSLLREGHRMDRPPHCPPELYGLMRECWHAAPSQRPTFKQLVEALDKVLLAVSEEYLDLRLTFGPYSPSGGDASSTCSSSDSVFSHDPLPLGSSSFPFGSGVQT
Procedure: Biochemical Activity Assessment In order to assess the activity of chemical compounds against the relevant kinase of interest, the Caliper LifeSciences electrophoretic mobility shift technology platform is utilized. Fluorescently labeled substrate peptide is incubated in the presence dosed levels of compounds, a set concentration of kinase and of ATP, so that a reflective proportion of the peptide is phosphorylated. At the end of the reaction, the mix of phosphorylated (product) and non-phosphorylated (substrate) peptides are passed through the microfluidic system of the Caliper LabChip® EZ Reader II, under an applied potential difference. The presence of the phosphate group on the product peptide provides a difference in mass and charge between the product peptide and the substrate peptide, resulting in a separation of the substrate and product pools in the sample. As the pools pass the LEDS within the instrument, these pools are detected and resolved as separate peaks. The ratio between these peaks therefore reflects the activity of the chemical matter at that concentration in that well, under those conditions.
FGFR-4 wild type assay at Km: In each well of a 384-well plate, 0.5 ng/ul of wild type FGFR-4 (Carna Biosciences, Inc.) was incubated in a total of 12.5 ul of buffer (100 mM HEPES pH 7.5, 0.015% Brij 35, 10 mM MgCl2, 1 mM DTT) with 1 uM CSKtide (5-FAM-KKKKEEIYFFFG-NH2) and 400 uM ATP at 25 C for 90 minutes in the presence or absence of a dosed concentration series of compound (1% DMSO final concentration). The reaction was stopped by the addition of 70 ul of Stop buffer (100 mM HEPES pH 7.5, 0.015% Brij 35, 35 mM EDTA and 0.2% of Coating Reagent 3 (Caliper Lifesciences)). The plate was then read on a Caliper LabChip® EZ Reader II (protocol settings: −1.9 psi, upstream voltage −700, downstream voltage −3000, post sample sip 35 s).

Structure (SMILES)	IC50 [1] [nM]	IC50 (wild type FGFR-4) [nM]
C=CC(=O)N[C@H]1CCC[C@H]1Nc1ncc2nc(-c3c(Cl)c(OC)cc(OC)c3Cl)c(=O)n(CC)c2n1 [Compound 63]	100 to 1000	10 to 100
C=CC(=O)N[C@H]1COCC[C@H]1Nc1ncc2cc(-c3c(Cl)c(OC)cc(OC)c3Cl)ccc2n1 [Compound 41]	100 to 1000	10 to 100
C=CC(=O)N[C@@H]1COC[C@@H]1Nc1ncc2cc(-c3c(Cl)c(OC)cc(OC)c3Cl)ccc2n1 [Compound 26]	100 to 1000	10 to 100
C=CC(=O)NC1CN(C(=O)CO)CC1Nc1ncc2cc(-c3c(Cl)c(OC)cc(OC)c3Cl)ccc2n1 (stereo not drawn) [Compound 75]	10 to 100	< 10
C=CC(=O)NC1CN(C(=O)CN(C)C)CC1Nc1ncc2cc(-c3c(Cl)c(OC)cc(OC)c3Cl)ccc2n1 (stereo not drawn) [Compound 88]	10 to 100	< 10
C=CC(=O)N[C@H]1CN(C(=O)NCC)C[C@H]1Nc1ncc2cc(-c3c(Cl)c(OC)cc(OC)c3Cl)ccc2n1 [Compound 83, (3S,4R)-3-acrylamido-4-((6-(2,6-dichloro-3,5-dimethoxyphenyl)quinazolin-2-yl)amino)-N-ethylpyrrolidine-1-carboxamide]	< 10	< 10
C=CC(=O)N[C@H]1CCCC[C@H]1Nc1ncc2cc(-c3c(Cl)c(OC)cc(OC)c3Cl)ccc2n1 [Compound 34, N-((1S,2R)-2-((6-(2,6-dichloro-3,5-dimethoxyphenyl)quinazolin-2-yl)amino)cyclohexyl)acrylamide]	10 to 100	10 to 100
C=CC(=O)N[C@H]1COC[C@H]1Nc1ncc2cc(-c3c(Cl)c(OC)cc(OC)c3Cl)cc(F)c2n1 [Compound 46]	< 10	< 10
C=CC(=O)N[C@H]1CN(C(=O)CN2CCCC2)C[C@H]1Nc1ncc2cc(-c3c(Cl)c(OC)cc(OC)c3Cl)ccc2n1 [Compound 91]	10 to 100	< 10
C=CC(=O)N[C@H]1CN(C(=O)OCC)C[C@H]1Nc1ncc2cc(-c3c(Cl)c(OC)cc(OC)c3Cl)ccc2n1 [Compound 84]	10 to 100	< 10
C=CC(=O)NC1COCC1Nc1ncc2cc(-c3c(Cl)c(OC)cc(OC)c3Cl)ccc2n1 (stereo not drawn) [Compound 28]	10 to 100	< 10
C=CC(=O)N[C@H]1CN(C(=O)C2CC2)C[C@H]1Nc1ncc2cc(-c3c(Cl)c(OC)cc(OC)c3Cl)ccc2n1 [Compound 80]	< 10	< 10
C=CC(=O)N[C@H]1COC[C@H]1Nc1ncc2cc(-c3c(Cl)c(OC)cc(OC)c3Cl)cnc2n1 [Compound 29]	< 10	10 to 100
C=CC(=O)N[C@H]1C[C@@H]2C[C@@H]2[C@H]1Nc1ncc2cc(-c3c(Cl)c(OC)cc(OC)c3Cl)ccc2n1 [Compound 32, N-((1S,2R,3S,5S)-2-((6-(2,6-dichloro-3,5-dimethoxyphenyl)quinazolin-2-yl)amino)bicyclo[3.1.0]hexan-3-yl)acrylamide]	< 10	< 10
C=CC(=O)N[C@H]1CN(C(=O)CO)C[C@H]1Nc1ncc2cc(-c3c(Cl)c(OC)cc(OC)c3Cl)ccc2n1 [Compound 76]	10 to 100	< 10
C=CC(=O)N[C@H]1CN(C(=O)OC(C)(C)C)C[C@H]1Nc1ncc2cc(-c3c(Cl)c(OC)cc(OC)c3Cl)ccc2n1 (racemic) [Compound 90]	100 to 1000	10 to 100
C=CC(=O)N[C@H]1CCOC[C@H]1Nc1ncc2cc(-c3c(Cl)c(OC)cc(OC)c3Cl)cc(F)c2n1 [Compound 52]	< 10	< 10
C=CC(=O)N[C@H]1CCC[C@H]1Nc1ncc2cc(-c3c(Cl)c(OC)cc(OC)c3Cl)c(=O)n(CC)c2n1 [Compound 62, N-((1S,2R)-2-((6-(2,6-dichloro-3,5-dimethoxyphenyl)-8-ethyl-7-oxo-7,8-dihydropyrido[2,3-d]pyrimidin-2-yl)amino)cyclopentyl)acrylamide]	10 to 100	< 10
C=CC(=O)N[C@H]1CCCC[C@H]1Nc1ncc2cc(-c3c(Cl)c(OC)cc(OC)c3Cl)c(=O)n(CC)c2n1 [Compound 77]	10 to 100	10 to 100
C=CC(=O)NC1CN(C(C)=O)CC1Nc1ncc2cc(-c3c(Cl)c(OC)cc(OC)c3Cl)ccc2n1 (stereo not drawn) [Compound 58]	10 to 100	< 10
C=CC(=O)N[C@H]1CN(S(=O)(=O)CC)C[C@H]1Nc1ncc2cc(-c3c(Cl)c(OC)cc(OC)c3Cl)ccc2n1 [Compound 89]	10 to 100	< 10
